Laboratory results taken from PubChem BioAssay (NCI).
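Where inhibition never reached the appropriate level, the endpoint shown equals the highest concentration tested. Otherwise, values were interpolated linearly from a five-concentration, 48-hour dose response in 96-well plates. The concentration for full growth arrest is given as TGI.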

Key:
Assay in all cases: DTP human tumour cell line panel, 48 h
RXF 393 renal = test system: RXF 393 renal
HCT-15 colon = test system: HCT-15 colon
UACC-62 melanoma = test system: UACC-62 melanoma
OVCAR-5 ovarian = test system: OVCAR-5 ovarian
SW-620 colon = test system: SW-620 colon
NCI-H522 lung = test system: NCI-H522 lung
LOX IMVI melanoma = test system: LOX IMVI melanoma
SF-295 CNS = test system: SF-295 CNS
PC-3 prostate = test system: PC-3 prostate
OVCAR-8 ovarian = test system: OVCAR-8 ovarian
HS 578T breast = test system: HS 578T breast
NCI/ADR-RES ovarian = test system: NCI/ADR-RES ovarian
SK-MEL-28 melanoma = test system: SK-MEL-28 melanoma
MCF7 breast = test system: MCF7 breast
IGROV1 ovarian = test system: IGROV1 ovarian
HOP-62 NSCLC = test system: HOP-62 NSCLC
SNB-75 CNS = test system: SNB-75 CNS
UACC-257 melanoma = test system: UACC-257 melanoma
786-0 renal = test system: 786-0 renal
SK-MEL-5 melanoma = test system: SK-MEL-5 melanoma
HCC-2998 colon = test system: HCC-2998 colon
HL-60(TB) leukemia = test system: HL-60(TB) leukemia
HCT-116 colon = test system: HCT-116 colon
COLO 205 colon = test system: COLO 205 colon
SK-MEL-2 melanoma = test system: SK-MEL-2 melanoma
MDA-N = test system: MDA-N
MDA-MB-231 breast = test system: MDA-MB-231 breast
UO-31 renal = test system: UO-31 renal
SF-268 CNS = test system: SF-268 CNS
EKVX NSCLC = test system: EKVX NSCLC
U251 CNS = test system: U251 CNS
TK-10 renal = test system: TK-10 renal
A549 NSCLC = test system: A549 NSCLC
DU-145 prostate = test system: DU-145 prostate
OVCAR-4 ovarian = test system: OVCAR-4 ovarian
SF-539 CNS = test system: SF-539 CNS
NCI-H23 lung = test system: NCI-H23 lung
NCI-H460 lung = test system: NCI-H460 lung
HT29 colon = test system: HT29 colon
SNB-19 CNS = test system: SNB-19 CNS
MALME-3M melanoma = test system: MALME-3M melanoma
ACHN renal = test system: ACHN renal
SN12C renal = test system: SN12C renal
A498 renal = test system: A498 renal
SK-OV-3 ovarian = test system: SK-OV-3 ovarian
HOP-92 NSCLC = test system: HOP-92 NSCLC
BT-549 breast = test system: BT-549 breast
MDA-MB-435 = test system: MDA-MB-435
CCRF-CEM leukemia = test system: CCRF-CEM leukemia
M14 melanoma = test system: M14 melanoma
NCI-H226 lung = test system: NCI-H226 lung
OVCAR-3 ovarian = test system: OVCAR-3 ovarian
K-562 leukemia = test system: K-562 leukemia
CAKI-1 renal = test system: CAKI-1 renal
MOLT-4 leukemia = test system: MOLT-4 leukemia
KM12 colon = test system: KM12 colon
SR leukemia = test system: SR leukemia
RPMI-8226 leukemia = test system: RPMI-8226 leukemia

Measured: TGI

N#Cc1c(O)c(N=Nc2ccccc2F)c(=O)n2c1[nH]c1ccccc12
65.4 µM: HS 578T breast
90.8 µM: MDA-MB-231 breast
57 µM: SK-MEL-2 melanoma
60.3 µM: HOP-92 NSCLC
94.9 µM: NCI-H522 lung
not listed: CAKI-1 renal | MOLT-4 leukemia | KM12 colon | SR leukemia | RPMI-8226 leukemia
> 100 µM: all other assays above

O=C1SS(=O)c2ccccc21 (configuration not stated)
not listed: RXF 393 renal | HS 578T breast | SF-268 CNS | TK-10 renal
> 100 µM: all other assays above
